Assay results as given in patent publication US10472346B2, “Potent gamma-secretase modulators” (The General Hospital Coporation, priority 2014, dated 2019).

Tests used:
[1] = test system: Aβ42 levels; assay: Effects of 7 days treatment on mouse plasma and brain Aβ42 levels; type: in vivo, male C57BL/6J mouse; details: for percent reduction of Aβ42 levels in brain: mouse brain; for percent reduction of Aβ42 levels in plasma: mouse plasma
Method: FIG. 2: The effects of Compound 1 after 7-days treatment on Aβ42 levels in male C57BL/6J mouse plasma A) (plasma) where the percent reduction was 76%, 91% and 96% for dosages of 10, 25, and 50 mg/kg, respectively and in male C57BL/6J mouse brain B) where the percent reduction was 36%, 69% and 85% for dosages of 10, 25, and 50 mg/kg, respectively.
Effects of Compound 1 (7 Days Treatment) on Mouse Plasma and Brain Aβ42 Levels. The effects of Compound 1 after 7-days treatment on Aβ42 levels in mouse plasma and brain are depicted in FIG. 2A (plasma) and FIG. 2B (brain). For FIG. 2A, the percent reduction was 76%, 91% and 96% for dosages of 10, 25, and 50 mg/kg, respectively. For FIG. 2B, the percent reduction was 36%, 69% and 85% for dosages of 10, 25, and 50 mg/kg, respectively.

[2] = test system: Aβ40 levels; assay: Effects of 9 days treatment on rat plasma and CSF Aβ40 levels; type: in vivo, male Sprague-Dawley rat; details: for reduction in CSF Aβ40 levels: rat CSF; for reduction in plasma Aβ40 levels: rat plasma
Method: FIG. 6: The effects of Compound 1 after 9-days treatment on Aβ40 levels in male Sprague-Dawley rat plasma A) where the reduction in plasma levels was 61%, 89% and 95%, for dosages of 5, 25, and 50 mg/kg, respectively and in male Sprague-Dawley rat CSF B) where the reduction in CSF levels was 47%, 75% and 85%, for dosages of 5, 25, and 50 mg/kg, respectively.
Effects of Compound 1 (9 Days Treatment) on Rat Plasma and CSF Aβ40 Levels. The effects of Compound 1 after 9-days treatment on Aβ40 levels in rat plasma and CSF are depicted in FIG. 6A (plasma) and FIG. 6B (CSF). For FIG. 6A, the reduction in plasma levels was 61%, 89% and 95%, for dosages of 5, 25, and 50 mg/kg, respectively. For FIG. 6B, the reduction in CSF levels was 47%, 75% and 85%, for dosages of 5, 25, and 50 mg/kg, respectively.

[3] = test system: Aβ42 levels; assay: Effects of 9 days treatment on rat plasma and CSF Aβ42 levels; type: in vivo, male Sprague-Dawley rat; details: for reduction in CSF Aβ42 levels: rat CSF; for reduction in plasma Aβ42 levels: rat plasma
Method: FIG. 5: The effects of Compound 1 after 9-days treatment on Aβ42 levels in male Sprague-Dawley rat plasma A) where the reduction in plasma levels was 81%, 93% and 97%, for dosages of 5, 25, and 50 mg/kg, respectively and male Sprague-Dawley rat CSF B) where the reduction in CSF levels was 43%, 73% and 86%, for dosages of 5, 25, and 50 mg/kg, respectively.
Effects of Compound 1 (9 Days Treatment) on Rat Plasma and CSF Aβ42 Levels. The effects of Compound 1 after 9-days treatment on Aβ42 levels in rat plasma and CSF are depicted in FIG. 5A (plasma) and FIG. 5B (CSF). For FIG. 5A, the reduction in plasma levels was 81%, 93% and 97%, for dosages of 5, 25, and 50 mg/kg, respectively. For FIG. 5B, the reduction in CSF levels was 43%, 73% and 86%, for dosages of 5, 25, and 50 mg/kg, respectively.

[4] = test system: Notch processing; assay: Notch processing in transfected H4-APP751 cells (Western blot, Myc antibody, NICD); type: cell-based, human; details: H4-APP751 cells transfected with the NAE construct, different concentrations, 24 hrs
From the text: Cells were harvested 48 hrs post transfection and applied to Western blotting analysis. Myc antibody was utilized to assess the NAED and NICD tagged with Myc on their N-termini. β-Actin was utilized as the loading control.
Cells were harvested 48 hrs post transfection and subjected to Western blotting analysis. Myc antibody was utilized to assess the NδED and NICD tagged with Myc on their N-termini.
Stable H4 human neuroglioma cells over-expressing human APP751, or H4-APP751 cells, were transfected with the NAE construct, and then treated with different concentrations SGSM Compound 1 (Lanes 1-6) or DAPT (Lanes 7-10) for another 24 hrs and are shown in FIG. 9. Cells were harvested 48 hrs post transfection and applied to Western blotting analysis. Myc antibody was utilized to assess the NAED and NICD tagged with Myc on their N-termini β-Actin was utilized as the loading control.
Stably-transfected H4 human neuroglioma cells over-expressing human APP751 (H4-APP751) cells, were transfected with the Notch NδED construct, and then treated with vehicle, or different doses of GSMs (40 nM, 200 nM, 1000 nM, and 5000 nM) for 24 hrs. Cells were harvested 48 hrs post transfection and subjected to Western blotting analysis.

[5] = test system: Aβ40 levels; assay: Effects of 7 days treatment on mouse plasma and brain Aβ40 levels; type: in vivo, male C57BL/6J mouse; details: for percent reduction of Aβ40 levels in brain: mouse brain; for percent reduction of Aβ40 levels in plasma: mouse plasma
Method: FIG. 3: The effects of Compound 1 after 7-days treatment on Aβ40 levels in male C57BL/6J mouse plasma A) (plasma) where the percent reduction was 62%, 81% and 91% for dosages of 10, 25, and 50 mg/kg, respectively and male C57BL/6J mouse brain B) where the percent reduction was 46%, 69% and 82% for dosages of 10, 25, and 50 mg/kg, respectively.
Effects of Compound 1 (7 Days Treatment) on Mouse Plasma and Brain Aβ40 Levels. The effects of Compound 1 after 7-days treatment on Aβ40 levels in mouse plasma and brain are depicted in FIG. 3A (plasma) and FIG. 3B (brain). For FIG. 3A, the percent reduction was 62%, 81% and 91% for dosages of 10, 25, and 50 mg/kg, respectively. For FIG. 3B, the percent reduction was 46%, 69% and 82% for dosages of 10, 25, and 50 mg/kg, respectively.

[6] = Plasma concentrations (pharmacokinetics) in male Sprague Dawley rats, iv and po; type: in vivo; details: rat
Method: FIG. 4. Time course of administration of Compound 1 to male Sprague Dawley rats: iv (1 mg/kg) or po (5 mg/kg). […] Clearance was 89 mL/hr/kg. T1/2 (iv) was 5.9 hrs.
Efficacy Studies in Rat. Plasma Concentrations of Compound 1 in Male Sprague Dawley Rats. FIG. 4 depicts the time course of administration of Compound 1 to male Sprague Dawley rats: iv (1 mg/kg) or [p (5 mg/kg). […] Clearance was 89 mL/hr/kg. T1/2 (iv) was 5.9 hrs.

COc1nc(-c2cc(C)c(N[C@@H](C)c3ccc(F)cc3)nn2)ccc1-n1cnc(C)c1 [Compound 1, (S)—N-(1-(4-fluorophenyl)ethyl)-6-(6-methoxy-5-(4-methyl-1H-imidazol-1-yl)pyridin-2-yl)-4-methylpyridazin-3-amine]
percent reduction of Aβ42 levels in brain ([1]; 10 mg/kg): 36%
percent reduction of Aβ42 levels in brain ([1]; 25 mg/kg): 69%
percent reduction of Aβ42 levels in brain ([1]; 50 mg/kg): 85%
percent reduction of Aβ42 levels in plasma ([1]; 10 mg/kg): 76%
percent reduction of Aβ42 levels in plasma ([1]; 25 mg/kg): 91%
percent reduction of Aβ42 levels in plasma ([1]; 50 mg/kg): 96%
reduction in CSF Aβ40 levels ([2]; 5 mg/kg): 47%
reduction in CSF Aβ40 levels ([2]; 25 mg/kg): 75%
reduction in CSF Aβ40 levels ([2]; 50 mg/kg): 85%
reduction in plasma Aβ40 levels ([2]; 5 mg/kg): 61%
reduction in plasma Aβ40 levels ([2]; 25 mg/kg): 89%
reduction in plasma Aβ40 levels ([2]; 50 mg/kg): 95%
reduction in CSF Aβ42 levels ([3]; 5 mg/kg): 43%
reduction in CSF Aβ42 levels ([3]; 25 mg/kg): 73%
reduction in CSF Aβ42 levels ([3]; 50 mg/kg): 86%
reduction in plasma Aβ42 levels ([3]; 5 mg/kg): 81%
reduction in plasma Aβ42 levels ([3]; 25 mg/kg): 93%
reduction in plasma Aβ42 levels ([3]; 50 mg/kg): 97%
Notch processing (NICD, Western blot) [4]: did not inhibit Notch processing
percent reduction of Aβ40 levels in brain ([5]; 10 mg/kg): 46%
percent reduction of Aβ40 levels in brain ([5]; 25 mg/kg): 69%
percent reduction of Aβ40 levels in brain ([5]; 50 mg/kg): 82%
percent reduction of Aβ40 levels in plasma ([5]; 10 mg/kg): 62%
percent reduction of Aβ40 levels in plasma ([5]; 25 mg/kg): 81%
percent reduction of Aβ40 levels in plasma ([5]; 50 mg/kg): 91%
bioavailability ([6]; iv (1 mg/kg) or po (5 mg/kg)): 60.3%
clearance ([6]; iv (1 mg/kg) or po (5 mg/kg)): 1.48 mL/min/kg
half-life ([6]; iv (1 mg/kg), read-out: T1/2 (iv) (converted)): 5.9 h
